The source of these data is patent US9856290B2, “Glycopeptide compositions and uses thereof” (SUSSEX RESEARCH LABORATORIES INC., priority 2013, dated 2018).

Assay type in all cases: cell-based
The test system of experiment [1] is Human Dermal Fibroblasts (KMST-6). Briefly: ECM ELISA assay: elastin secretion by human dermal fibroblasts. The following applies: 5 μM; for biological activity in elastin secretion compared to control / increased elastin secretion compared to control / increased secretion of elastin compared to the reference peptide: 72 hours; for increased elastin secretion compared to control: versus DMSO control; for increased secretion of elastin compared to the reference peptide: versus Pal-KTTKS reference; for Elastin Secretion at 48 hours: KMST-6, 48 hours; for Elastin Secretion at 48 hours / Elastin Secretion at 72 hours: % compared to control set at 100%, normalized to total protein; for Elastin Secretion at 72 hours / ELASTIN (ECM Protein Summary Table): KMST-6, 72 hours; for ELASTIN (ECM Protein Summary Table): control 100%. Summed up:
(§1)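 KMST-6 human dermal fibroblasts treated with 5 μM compound in serum-free medium with sodium ascorbate and β-aminopropionate fumarate for 48 and 72 h. Secreted fibronectin and elastin quantified by ELISA (450 nm, 4-parameter standard curve), normalized to total cellular protein and expressed as % of DMSO control.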
(In an ELISA, binding on a coated surface is turned into a signal by an enzyme label.)

For experiment [2] the test system is unchanged. The experiment is described as follows: Total Collagen Assay (Sirius Red Collagen Detection Kit). The following applies: 5 μM. Here is the method:
KMST-6 cells (Japan Health Sciences Foundation, JCRB0433) were seeded at 7,000 cells/mL in 60 mm tissue culture treated plates (Falcon, 353002) in complete media. The complete media consisted of the following: MEM/EBSS (Hyclone, SH30024.01), 10% Heat-Inactivated FBS (Gibco, 10082-147), 1% L-Glutamine (Hyclone, SH30031.01), 1% Nucleosides (800 mg/L Adenosine, 850 mg/L Guanidine, 730 mg/L Cytidine, 730 mg/L Uridine and 240 mg/L Thymidine), 1% Penicillin/Streptomycin (HyClone, SV30010), 1% Sodium Pyruvate (HyClone, SH30239.01), 1% Non-Essential Amino Acids (Hyclone, SH30238.01) and 0.04% Gentamicin (Gibco, 15710-064). Cells were grown for 2 days prior to treatments. The cells were washed with 1×PBS (Fisher, SH30256.01) and treated with 5 μM glycopeptides (GP003-9, GP004-3, GP004-4), reference (Pal-KTTKS, CPC Scientific, 822197), and control (DMSO, Fisher, BP231-100) in serum-free media supplemented with 50 µg/mL Sodium Ascorbate (Sigma, A4034) and 80 μg/mL β-Aminopropionate Fumarate (Sigma, A3134). The treated cells were incubated at 37° C. and 5% CO2 for 48 and 72 hours. At each timepoint, media from each treatment was collected and centrifuged at 1500 RPM for 15 minutes at 4° C. The supernatant was collected and stored at −80° C. for extracellular matrix protein quantification. The following kit was used for quantification of total collagen: Sirius Red Collagen Detection Kit (Chondrex Inc., 9062). The cells were harvested and lysed with Lysis Buffer (20 mM Tris-HCl (Sigma, T1503), 137 mM NaCl (Sigma, S9888), 2 mM EDTA (Fisher, BP118), 1% IGEPAL (Sigma, 18896), 10% Glycerol (Sigma, G5516), 100 μM PMSF (Fisher, 36978) and 10 μg/mL Leupeptin (Sigma, L2884)). They were placed on a container of ice on an orbital shaker (VWR, 89032-088) for 30 minutes. The cell lysate was centrifuged at 10,000 g for 5 minutes at 4° C. The supernatant was collected and used for protein quantification (BioRad, 500-0112). […]

Experiment [3] shares this test system. The experiment is described as follows: ECM ELISA assay: fibronectin secretion by human dermal fibroblasts. The following applies: 5 μM; for increased fibronectin secretion compared to control: versus DMSO control; for Fibronectin secretion at 48 hours: KMST-6, 48 hours; for Fibronectin secretion at 48 hours / Fibronectin Secretion at 72 hours: % compared to control set at 100%, normalized to total protein; for Fibronectin Secretion at 72 hours / FIBRONECTIN (ECM Protein Summary Table): KMST-6, 72 hours; for FIBRONECTIN (ECM Protein Summary Table): control 100%. A digest of the protocol:
as §1

Setting [4] is: 72 hours, versus Pal-KTTKS reference.

Marks after values point to notes of the source that are not given here. Primed or numbered codes have the meaning given here. The star is where a group is joined. Ac7‑β‑Mal = peracetylated β-maltose, CC(=O)OC[C@H]1O[C@@H](*)[C@H](OC(C)=O)[C@@H](OC(C)=O)[C@@H]1O[C@H]1O[C@H](COC(C)=O)[C@@H](OC(C)=O)[C@H](OC(C)=O)[C@H]1OC(C)=O; Ac3‑α‑GalNAc = per-acetylated α-N-acetylgalactosamine (O-glycoside), CC(=O)N[C@@H]1[C@@H](OC(C)=O)[C@@H](OC(C)=O)[C@@H](COC(C)=O)O[C@@H]1*; Ac3‑α‑GalNAc″ = peracetylated alpha-N-acetylgalactosamine, CC(=O)N[C@@H]1[C@@H](OC(C)=O)[C@@H](OC(C)=O)[C@@H](COC(C)=O)O[C@@H]1*; Ac4‑β‑Glc = per-acetylated β-glucose (tetraacetyl), CC(=O)OC[C@H]1O[C@@H](*)[C@H](OC(C)=O)[C@@H](OC(C)=O)[C@@H]1OC(C)=O; αGalNAc = CC(=O)N[C@@H]1[C@@H](O)[C@@H](O)[C@@H](CO)O[C@@H]1*; βGlcNAc = CC(=O)N[C@@H]1[C@@H](O)[C@H](O)[C@@H](CO)O[C@H]1*; βGlc = OC[C@H]1O[C@@H](*)[C@H](O)[C@@H](O)[C@@H]1O; Palmitoyl = CCCCCCCCCCCCCCCC(=O)*

As for “Pal-KTT(Ac7-β-Mal)KS-OH (Palmitoyl-KTT(Ac7‑β‑Mal)KS-OH; SMILES CCCCCCCCCCCCCCCC(=O)N[C@@H](CCCCN)C(=O)N[C@H](C(=O)N[C@H](C(=O)N[C@@H](CCCCN)C(=O)N[C@@H](CO)C(=O)O)[C@@H](C)O[C@@H]1O[C@H](COC(C)=O)[C@@H](O[C@H]2O[C@H](COC(C)=O)[C@@H](OC(C)=O)[C@H](OC(C)=O)[C@H]2OC(C)=O)[C@H](OC(C)=O)[C@H]1OC(C)=O)[C@@H](C)O; listed as Homo sapiens) [GP004-3]”, in experiment [1], the “biological activity in elastin secretion compared to control” value is “greater biological activity”, the “increased elastin secretion compared to control” value was found to be 285%, the “increased secretion of elastin compared to the reference peptide” value is given as 252% and the “Elastin Secretion at 48 hours” value is 226.1%. For the same substance, in experiment [1], the “Elastin Secretion at 72 hours” value is reported as 384.7* % and the “ELASTIN (ECM Protein Summary Table)” value is 385*^# %. Moreover, the “increased total collagen secretion compared to control” value in experiment [2] (72 hours, versus DMSO control) came out at 31%. Moreover, the “increased total collagen secretion compared to the reference peptide” value in experiment [2] (setting [4]) was 21%. In addition, the “TOTAL COLLAGEN (ECM Protein Summary Table)” value in experiment [2] (KMST-6, 72 hours, control 100%) is on record as 131*^# %. In experiment [3] (72 hours), the “biological activity in fibronectin secretion compared to control” value is recorded as “greater biological activity” and the “increased fibronectin secretion compared to control” value came out at 68%. The “increased fibronectin secretion compared to reference” value in experiment [3] (setting [4]) amounted to 50%. Further, in experiment [3], the “Fibronectin secretion at 48 hours” value was 185.0* %, the “Fibronectin Secretion at 72 hours” value was 168.3* % and the “FIBRONECTIN (ECM Protein Summary Table)” value is given as 168*^# %.

In the case of “Pal-KTTKS(Ac4-β-Glc)-OH (Palmitoyl-KTTKS(Ac4‑β‑Glc)-OH; SMILES CCCCCCCCCCCCCCCC(=O)N[C@@H](CCCCN)C(=O)N[C@H](C(=O)N[C@H](C(=O)N[C@@H](CCCCN)C(=O)N[C@@H](CO[C@@H]1O[C@H](COC(C)=O)[C@@H](OC(C)=O)[C@H](OC(C)=O)[C@H]1OC(C)=O)C(=O)O)[C@@H](C)O)[C@@H](C)O; listed as Homo sapiens) [GP002-3]”, in experiment [1], the “biological activity in elastin secretion compared to control” value is reported as “greater biological activity”, the “increased elastin secretion compared to control” value amounted to 222%, the “increased secretion of elastin compared to the reference peptide” value amounted to 189% and the “Elastin Secretion at 48 hours” value is on record as 460.4* %. Further, in experiment [1], the “Elastin Secretion at 72 hours” value is on record as 321.6* % and the “ELASTIN (ECM Protein Summary Table)” value was 322*^# %. For the same substance, in experiment [3] (72 hours), the “biological activity in fibronectin secretion compared to control” value is given as “greater biological activity” and the “increased fibronectin secretion compared to control” value was determined as 35%. In addition, in experiment [3], the “Fibronectin secretion at 48 hours” value is 135.5%, the “Fibronectin Secretion at 72 hours” value was 134.5* % and the “FIBRONECTIN (ECM Protein Summary Table)” value is 135* %.

As for “Pal-N(β-Glc)KTTKS-OH (Palmitoyl-N(βGlc)KTTKS-OH; listed as Homo sapiens) [GP003-8]”, in experiment [1], the “Elastin Secretion at 48 hours” value is recorded as 111.3% and the “Elastin Secretion at 72 hours” value is reported as 146.5%. In experiment [3], the “Fibronectin secretion at 48 hours” value came out at 157.2% and the “Fibronectin Secretion at 72 hours” value was determined as 126.0%.

In the case of “Pal-KTTKS(β-GlcNAc)-OH (Palmitoyl-KTTKS(βGlcNAc)-OH; SMILES CCCCCCCCCCCCCCCC(=O)N[C@@H](CCCCN)C(=O)N[C@H](C(=O)N[C@H](C(=O)N[C@@H](CCCCN)C(=O)N[C@@H](CO[C@@H]1O[C@H](CO)[C@@H](O)[C@H](O)[C@H]1NC(C)=O)C(=O)O)[C@@H](C)O)[C@@H](C)O; listed as Homo sapiens) [GP002-6]”, in experiment [1], the “Elastin Secretion at 48 hours” value was found to be 150.7% and the “Elastin Secretion at 72 hours” value is reported as 111.0%. In experiment [3], the “Fibronectin secretion at 48 hours” value is 109.7% and the “Fibronectin Secretion at 72 hours” value was 115.8%.

Take “Pal-KTTKS(α-GalNAc)-OH (Palmitoyl-KTTKS(αGalNAc)-OH; SMILES CCCCCCCCCCCCCCCC(=O)N[C@@H](CCCCN)C(=O)N[C@H](C(=O)N[C@H](C(=O)N[C@@H](CCCCN)C(=O)N[C@@H](CO[C@H]1O[C@H](CO)[C@H](O)[C@H](O)[C@H]1NC(C)=O)C(=O)O)[C@@H](C)O)[C@@H](C)O; listed as Homo sapiens) [GP002-2]”: in experiment [1], the “Elastin Secretion at 48 hours” value was found to be 143.8% and the “Elastin Secretion at 72 hours” value came to 127.0%. In experiment [3], the “Fibronectin secretion at 48 hours” value is recorded as 95.7% and the “Fibronectin Secretion at 72 hours” value is given as 90.60%.

“Pal-KT(Ac3-α-GalNAc)TKS-OH (Palmitoyl-KT(Ac3‑α‑GalNAc)TKS-OH; SMILES CCCCCCCCCCCCCCCC(=O)N[C@@H](CCCCN)C(=O)N[C@H](C(=O)N[C@H](C(=O)N[C@@H](CCCCN)C(=O)N[C@@H](CO)C(=O)O)[C@@H](C)O)[C@@H](C)O[C@H]1O[C@H](COC(C)=O)[C@H](OC(C)=O)[C@H](OC(C)=O)[C@H]1NC(C)=O; listed as Homo sapiens) [GP001-3]”: in experiment [1], the “Elastin Secretion at 48 hours” value came to 123.3% and the “Elastin Secretion at 72 hours” value came to 132.5%. For the same substance, in experiment [3], the “Fibronectin secretion at 48 hours” value is given as 163.8* % and the “Fibronectin Secretion at 72 hours” value is 117.4%.

For the substance “Pal-KTTKS(Ac3-α-GalNAc)-OH (Palmitoyl-KTTKS(Ac3‑α‑GalNAc″)-OH; SMILES CCCCCCCCCCCCCCCC(=O)N[C@@H](CCCCN)C(=O)N[C@H](C(=O)N[C@H](C(=O)N[C@@H](CCCCN)C(=O)N[C@@H](CO[C@H]1O[C@H](COC(C)=O)[C@H](OC(C)=O)[C@H](OC(C)=O)[C@H]1NC(C)=O)C(=O)O)[C@@H](C)O)[C@@H](C)O; listed as Homo sapiens) [GP002-1]”, in experiment [1], the “Elastin Secretion at 48 hours” value turned out to be 144.8% and the “Elastin Secretion at 72 hours” value came to 145.5%. Further, in experiment [3], the “Fibronectin secretion at 48 hours” value was found to be 114.7% and the “Fibronectin Secretion at 72 hours” value stood at 108.0%.

Regarding “Pal-KN(β-Glc)TKS-OH (Palmitoyl-KN(βGlc)TKS-OH; listed as Homo sapiens) [GP003-6]”, in experiment [1], the “Elastin Secretion at 48 hours” value worked out at 170.3% and the “Elastin Secretion at 72 hours” value is recorded as 128.8%. Besides, in experiment [3], the “Fibronectin secretion at 48 hours” value is 140.2% and the “Fibronectin Secretion at 72 hours” value is given as 119.7%.
